The target of assay [1] is T1, Histamine H3 receptor (Cavia porcellus, UniProt Q9JI35). Put plainly: Binding affinity towards histamine H3 receptor using [3H](R)-alpha-methylhistamine as radioligand in guinea pig cortical homogenates.
In assay [2] the target is Histamine H3 receptor (Cavia porcellus) (UniProt Q9JI35). As to the kind of experiment: Inhibition of H3-receptor mediated neurogenic contractions in the isolated guinea pig ileum assay. Type of assay: functional, tissue-based.
Assay [3] has the same target. As to the kind of experiment: Compound was tested for inhibition of histamine H3-receptor mediated neurogenic contractions in the isolated guinea pig ileum assay; Partial agonist. Type of assay: functional, tissue-based.
In assay [4] the target is T1, Histamine H3 receptor. As to the kind of experiment: Binding affinity towards histamine H3 receptor using [3H](R)-alpha-methylhistamine as radioligand in guinea pig ileum LMMP homogenates. Type of assay: tissue-based.
Assay [5] has as its target Histamine H3 receptor (Cavia porcellus) (UniProt Q9JI35). As to the kind of experiment: Compound was tested for inhibition of histamine H3-receptor mediated neurogenic contractions in the isolated guinea pig ileum assay; Full agonist. Type of assay: functional, tissue-based.

Sequence of Histamine H3 receptor (Cavia porcellus) (Q9JI35 whole entry): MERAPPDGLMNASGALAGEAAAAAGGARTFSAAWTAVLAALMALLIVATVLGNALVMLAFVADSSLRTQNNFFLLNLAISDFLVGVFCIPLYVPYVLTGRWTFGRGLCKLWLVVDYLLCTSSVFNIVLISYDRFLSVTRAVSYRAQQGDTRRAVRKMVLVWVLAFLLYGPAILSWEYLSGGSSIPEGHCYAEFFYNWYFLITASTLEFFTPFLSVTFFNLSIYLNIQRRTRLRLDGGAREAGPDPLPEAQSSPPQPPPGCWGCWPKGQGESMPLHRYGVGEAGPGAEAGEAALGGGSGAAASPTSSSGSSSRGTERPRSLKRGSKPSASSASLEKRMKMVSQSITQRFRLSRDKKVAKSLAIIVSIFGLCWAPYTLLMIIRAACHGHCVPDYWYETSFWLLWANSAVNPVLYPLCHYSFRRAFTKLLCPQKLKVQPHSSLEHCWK
T1 sequence (Q9JI35 whole entry): as above

In the case of `O=S(=O)(NCCCCCc1c[nH]cn1)c1ccc2ccccc2c1`, at Histamine H3 receptor [1], the Ki (as a rule, the equilibrium dissociation constant of an inhibitor or competing ligand from its target) was 14.8 nM. The pKB (usually the KB on a negative log10 scale, so that one unit is a factor of ten) in assay [2] came out at 6.96.
Take `CS(=O)(=O)NCCc1c[nH]cn1`: the negative-log KB (pKB) in assay [3] was 4.77. The affinity on Histamine H3 receptor [4] corresponds to a Ki of 186 nM.
`O=S(=O)(NCCc1c[nH]cn1)c1ccc2ccccc2c1` displayed a pKB in assay [2] of 6.7.
For the molecule `O=S(=O)(NCCCCCCc1c[nH]cn1)c1ccc2ccccc2c1`, the Ki at Histamine H3 receptor [1] is 25.1 nM. Also, in assay [2], the negative-log KB (pKB) amounted to 7.11.
In assay [2], `O=S(=O)(NCCCCCCCCc1c[nH]cn1)c1ccc2ccccc2c1` came in with a pKB of 6.62.
Still for that read-out and setting: in the case of `O=S(=O)(Cc1ccccc1)NCCc1c[nH]cn1` it was below 5.
In the case of `O=S(=O)(NCCCc1c[nH]cn1)c1ccc2ccccc2c1`, affinity at Histamine H3 receptor [1] was put at a Ki of 14.1 nM. The molecule also gave a pKB in assay [2] of 5.93.
Turning to `O=S(=O)(Cc1ccc2ccccc2c1)NCCc1c[nH]cn1`, the Ki at Histamine H3 receptor [1] is 490 nM; at Histamine H3 receptor [4] it was 1150 nM. Moreover, the pKB in assay [2] is below 5.
As to `NCCc1c[nH]cn1` [HISTAMINE], the p[A]50 in assay [5] amounted to 7.15. Besides, the Ki is 0.145 nM on Histamine H3 receptor [1] and 10.5 nM at Histamine H3 receptor [4].
As for `O=S(=O)(NCCCCc1c[nH]cn1)c1ccc2ccccc2c1`, at Histamine H3 receptor [1], the Ki was 22.9 nM. Also, the pKB in assay [2] is 6.81.
Consider `C[C@H](Cc1c[nH]cn1)NS(=O)(=O)c1ccc2ccccc2c1`, for which the p[A]50 in assay [5] came to 6.02. In addition, at Histamine H3 receptor [1], the Ki was 1.02 nM.
Consider `C[C@@H](N)Cc1c[nH]cn1`, for which the p[A]50 in assay [5] was 7.94. The Ki is 0.0851 nM on Histamine H3 receptor [1] and 0.151 nM at Histamine H3 receptor [4].
With `O=S(=O)(NCCCCCCCc1c[nH]cn1)c1ccc2ccccc2c1`, the Ki on Histamine H3 receptor [1] is 50.1 nM. Further, the pKB in assay [2] was 6.88.
For `O=S(=O)(NCCCCCCCCCCc1c[nH]cn1)c1ccc2ccccc2c1`, in that order: 138 nM and 5.79.
The matching figures for `O=S(=O)(CCC1CCCCC1)NCCc1c[nH]cn1`: 16.2 nM and 5.87.
The matching figures for `O=S(=O)(/C=C/c1ccccc1)NCCc1c[nH]cn1`: 115 nM and below 5.5.
